The values below come from ChEMBL document CHEMBL1128957, “In vivo potent antifilarial -carbolines” (1996).

Calls of active or inactive are those of the source. The rule behind the calls is not given here.

For experiment [1], the species on record is Rattus norvegicus. Put plainly: Percentage of sterilization of surviving female worm Acanthocheilonema viteae in Mastomys natalensis. The experiment is classed as functional.
The subject of experiment [2] is Rattus norvegicus. Put plainly: In vivo microfilaricidal activity against Litomosoides carinii in cotton rats at a dose of 30 mg/kg for 5 days administered i.p.: Inactive. The experiment is classed as functional, organism-based. The arrangement: dose 30 mg/kg.
Experiment [3] deals with Rattus norvegicus. Put plainly: In vivo macrofilaricidal activity against Acanthocheilonema viteae in Mastomys natalensis at a dose of 50 mg/kg for 5 days administered i.p. Type of experiment: functional. The settings on record: route intraperitoneal.
Experiment [4] has as its system Rattus norvegicus. Put plainly: In vivo macrofilaricidal activity against Litomosoides carinii in cotton rats at a dose of 30 mg/kg for 5 days administered i.p.: Inactive. The arrangement: dose 30 mg/kg. The experiment is classed as functional, organism-based.
For experiment [5], the system named is Rattus norvegicus. Put plainly: In vivo microfilaricidal activity against A. viteae in Mastomys natalensis at a dose of 50 mg/kg for 5 days administered i.p.: Inactive. The arrangement: dose 50 mg/kg. Type of experiment: functional, organism-based.
The species named for experiment [6] is Rattus norvegicus. Nature of the experiment: Percentage of sterilization of surviving female worm Acanthocheilonema viteae in Mastomys natalensis: Inactive. Type of experiment: functional, organism-based.
In experiment [7] the test system is Rattus norvegicus. Nature of the experiment: In vivo microfilaricidal activity against Litomosoides carinii in cotton rats at a dose of 30 mg/kg for 5 days administered i.p. Type of experiment: functional. To be noted: route intraperitoneal.
Experiment [8] deals with Rattus norvegicus. Nature of the experiment: In vivo macrofilaricidal activity against Litomosoides carinii in cotton rats at a dose of 30 mg/kg for 5 days administered i.p. The experiment is classed as functional. The settings on record: route intraperitoneal.
The species named for experiment [9] is Rattus norvegicus. Nature of the experiment: Percentage of sterilization of surviving female worm Acanthocheilonema viteae: Inactive. The experiment is classed as functional, organism-based.
Experiment [10] relates to Rattus norvegicus. Put plainly: In vivo macrofilaricidal activity against A. viteae in Mastomys natalensis at a dose of 50 mg/kg for 5 days administered i.p.: Inactive. Also noted: dose 50 mg/kg. Type of experiment: functional, organism-based.
Experiment [11] concerns Rattus norvegicus. Put plainly: In vivo macrofilaricidal activity against Litomosoides carinii in cotton rats at a dose of 6 mg/kg for 5 days administered i.p.: Inactive. The arrangement: dose 6 mg/kg. The experiment is classed as functional, organism-based.
Experiment [12] has as its system Rattus norvegicus. Nature of the experiment: In vivo macrofilaricidal activity against A. viteae in Mastomys natalensis at a dose of 350 mg/kg for 5 days administered i.p.: Inactive. Type of experiment: functional, organism-based. The arrangement: dose 350 mg/kg.

In the experiment listed under Rattus norvegicus [1], `NC(=O)c1nccc2c1[nH]c1ccccc12` came in with an Activity of 100. The Death entry with Rattus norvegicus [2] and in the experiment with Rattus norvegicus [4] was “inactive” in each case. This compound gave a Death in the experiment on Rattus norvegicus [3] of 50%.
On to `NC(=O)C1NCCc2c1[nH]c1ccccc21` (stereo not given), for which the Death result with Rattus norvegicus [5], with Rattus norvegicus [2] and in the experiment with Rattus norvegicus [4] was “inactive” throughout. In addition, in the experiment filed under Rattus norvegicus [6], the result was inactive. In the experiment with Rattus norvegicus [3], this compound yielded a Death of 84%.
Regarding `N#Cc1[nH]ccc2c3ccccc3nc1-2`, the Death entry in the experiment with Rattus norvegicus [5] was “inactive”. Also, the Death is listed as 59% in the experiment with Rattus norvegicus [7], 78% in the experiment on Rattus norvegicus [8] and 50% with Rattus norvegicus [3]. Also, the result in the experiment filed under Rattus norvegicus [6] was inactive.
With `COC(=O)c1nccc2c1[nH]c1ccccc12`, the outcome in the experiment filed under Rattus norvegicus [9] was inactive. The Death entry in the experiment with Rattus norvegicus [2], with Rattus norvegicus [10] and with Rattus norvegicus [4] was “inactive” each time.
With `CCN(CC)C(=O)N1CCN(C)CC1.O=C(O)CC(O)(CC(=O)O)C(=O)O` [DIETHYLCARBAMAZINE CITRATE], the Death entry in the experiment with Rattus norvegicus [11] and with Rattus norvegicus [12] was “inactive” in each case. Besides, the outcome in the experiment listed under Rattus norvegicus [6] was inactive.
In the case of `COC(=O)C1NCCc2c1[nH]c1ccccc21` (stereo not given), in the experiment listed under Rattus norvegicus [6], the outcome was inactive. Besides, the Death entry in the experiment on Rattus norvegicus [2] and in the experiment with Rattus norvegicus [10] was “inactive” each time. In the experiment on Rattus norvegicus [8], this compound showed a Death of 81%.
